Experimental data published in ChEMBL document CHEMBL1147386, “Pantherinine, a cytotoxic aromatic alkaloid, and 7-deazainosine from the ascidian Aplidium pantherinum” (1993).
In brackets after ≈: the same amount, converted by molar mass.

Test system: P388
Test: Cytotoxicity against mouse P388 cells
Assay type: functional

Row | Compound | Activity | EC50 (read-out: ED50 (the source's name)) [µg/mL]
1 | Nc1ncnc2c1ccn2[C@@H]1O[C@H](CO)[C@@H](O)[C@H]1O | Toxic | 
2 | NC1=Cc2nc3ccc(Br)cc3c3ccnc(c23)C1=O [PANTHERININE] |  | 4.5 (≈ 13.8 µM)
